# According to patent publication US20230088704A1, “A PHARMACEUTICAL COMBINATION FOR THE TREATMENT OF A CANCER” (ABILITY PHARMACEUTICALS S.L., priority 2020, published 2023):
# Where two headings read alike, the source gives them in different places.
# Experiments:
# JJN-3 cells = assay: Cell viability (MTT) and combination index, ABTL0812 with bortezomib; assay type: cell-based; details: ABTL0812 5 μM, Bortezomib 0.5 nM, alone or combined; 48h
# Description: (§1) Methods: JJN-3 and OPM2 cells were seeded in 24-well plates and treated with ABTL0812 (5 μM), bortezomib (0.5 and 1 nM respectively) or a combination of both drugs and left in the incubator for 48h (0.5% FBS). Cell viability was studied by the MTT assay and combination index was determined to evaluate a possible synergism.
# (§2) Cell viability was evaluated in all cases by MTT assay and the Combination Index (CI), to evaluate synergism, was calculated according to the method of Chou and Talalay (Chou 2006; Chou 2010), as follows: CI=(D)1/(Dx)1+(D)2/(Dx)2, where CI<1, =1, and >1 indicate synergism, additive effect, and antagonism, respectively. In the denominator, (Dx)1 is for D1 “alone” that inhibits a system x %, and (Dx)2 is for D2 “alone” that inhibits a system x %.
# OPM2 cells = assay: as above; assay type: cell-based; details: ABTL0812 5 μM, Bortezomib 1 nM, alone or combined; 48h
# Description: as §1, §2
# Ishikawa cells [1] = assay type: in vivo; details: ABTL0812 oral 120 mg/kg/day; Doxorubicin 5 mg/kg i.p. once a week
# Description: Methods: Mice were injected with 4×10^6 Ishikawa cells in one flank to induce tumor formation. […] ABTL0812 was administered by the oral route at 120 mg/kg/day. Doxorubicin 5 mg/kg was administered intra-peritoneally once a week. Tumor volume and body weight were monitored 3 times a week.
# Ishikawa cells [2] = assay: Human endometrial cancer xenograft, ABTL0812 with olaparib; assay type: in vivo; details: ABTL0812 oral 120 mg/kg/day; Olaparib oral 50 mg/kg/day
# Description: Methods: Mice were injected with 4×10^6 Ishikawa cells in one flank to induce tumor formation. […] Olaparib was administered by the oral route 50 mg/kg/day. Tumor volume and body weight were monitored 3 times a week.
# PDL1 = PDL1 expression in cancer cells by flow cytometry (Example 6.2); assay type: cell-based, human; details: Panc-1 cells; ABTL0812 50 μM, IFNγ 2.5 ng/ml or both
# Description: Methods: Human cancer cell lines were incubated with 100 μM of ABTL0812 during 48 hours and collected for staining with anti-PDL1 antibody labeled with a fluorophore. After staining of cells with anti-PDL1 antibody, cells were run on Flow Cytometry (Facs Canto) to analyzed PDL1 levels in cancer cells. Additionally, we incubated Panc-1 cells with ABTL0812 (50 μM), IFNγ (2.5 ng/ml), a master regulator of PDL1 expression or a combination with both. Then, cells were collected, stained with anti-PDL1 antibody and analyzed by Flow Cytometry for the expression of PDL1.
# Ishikawa cells [3] = assay: Human endometrial cancer xenograft, ABTL0812 with bevacizumab; assay type: in vivo; details: ABTL0812 oral 120 mg/kg/day; Bevacizumab ip 100 μg/dose every four days
# Description: Methods: Mice were injected with 4×10^6 Ishikawa cells in one flank to induce tumor formation. […] Bevacizumab was administered ip at 100 μg/dose, every four days up to four administration. Tumor volume and body weight were monitored 3 times a week.
compound,measurement,setting,value
"CC(C)C[C@H](NC(=O)[C@H](Cc1ccccc1)NC(=O)c1cnccn1)B(O)O [Bortezomib, reference compound]",cell death,JJN-3 cells,~15%
same,cell death,OPM2 cells,around 10%
"COc1cccc2c1C(=O)c1c(O)c3c(c(O)c1C2=O)C[C@@](O)(C(=O)CO)C[C@@H]3O[C@H]1C[C@H](N)[C@H](O)[C@H](C)O1 [doxorubicin, reference compound]",tumor volume,Ishikawa cells [1],significantly reduced tumor volume
"O=C(c1cc(Cc2n[nH]c(=O)c3ccccc23)ccc1F)N1CCN(C(=O)C2CC2)CC1 [olaparib, reference compound]",tumor volume,Ishikawa cells [2],significantly reduced tumor volume
IFNγ: well described master regulator of PDL1 expression [reference compound],PDL1 levels,PDL1,significantly higher levels of PDL1 compared with ABTL0812
bevacizumab [reference compound],tumor volume,Ishikawa cells [3],significantly reduced tumor volume
